Experimental data reported in PMC8151276, “An Integrated Approach toward NanoBRET Tracers for Analysis of GPCR Ligand Engagement” (Molecules, 2021).

What was measured:
CCR8 = target: T1, CCR8 (Homo sapiens, UniProt P51685); test: NanoBRET screen HiBiT-CCR8 in HEK293; format: binding; settings: CCR8
T1 construct: purchased Promega (in-house HiBiT-GPCR construct library, NanoBRET)
Description: (§1) Each tracer candidate was screened across the entire library of HiBiT-GPCR constructs using NanoBRET as the detection modality. As depicted in Figure 4A, the specificity of interactions was evaluated through decrease in BRET due to competitive displacement of a bound tracer by excess parental compound. Each tracer was analyzed for binding to each HiBiT-GPCR fusion in the absence and in the presence of competing parental compound. Briefly, HEK293 cells were transfected with HiBiT-GPCR constructs diluted into promoterless DNA to reduce expression and maximize translocation to the cell surface. Each tracer candidate was then screened at concentrations of 1 μM and 0.1 μM across cells expressing these fusions. Cells were treated for 1.5 h with tracer either alone or in the presence of 20 μM competing parental compound (i.e., control). BRET was measured upon addition of purified LgBiT and subsequent complementation with HiBiT genetically fused to a GPCR. The specificity of interactions was assessed through a decrease in BRET signal due to competitive displacement of the bound tracer. To further gauge the robustness of these interactions, the fold response over the control (i.e., BRETtracer/BRETcontrol) was calculated. We chose a 1.5-fold response, which translates to ≥7-fold signal over noise as the minimal threshold required to score an interaction as positive. […]. Below we highlight the screening results obtained for our exemplary fluorescent tracers based on Clozapine, Amitriptyline and AZD1283.
(§2) HiBiT-GPCR DNA constructs were diluted in 10 mM Tris pH 8 to a final concentration of 0.01 μg/μL, arrayed in 96-well plates and stored at −20 °C. For transfection, HEK293 cells were suspended in Opti-MEM (without phenol red) supplemented with 2% fetal bovine serum (Seradigm) and 100 units/mL penicillin–streptomycin (Gibco) at a final concentration of 220,000 cells/mL and dispensed into white 96-well plates at 90 μL/well. Subsequent transfections and screens were carried using an Agilent Bravo Automated Liquid Handling Platform. First, the 96-well HiBiT DNA arrays were diluted 25-fold in Opti-MEM (without serum or phenol red) to a final concentration of 0.0004 μg/μL and 20 μL of the diluted DNAs were transferred into new 96-well plates. Next, promoterless carrier DNA (1 μg/μL) was diluted 25-fold (0.04 μg/μL) and then dispensed into the diluted arrays at 20 μL/well. Following brief mixing, Viafect transfection reagent (Promega) diluted 16-fold into Opti-MEM was dispensed into the plates at 40 μL/well. After mixing by pipetting, plates were incubated for 10 min on the pipetting station deck. The DNA-transfection reagent complexes were then added to plates containing cells. To facilitate the screen, 10 μL of DNA-transfection reagent complexes were added in duplicates to the top 4 and bottom 4 rows, resulting in two identical 48-well arrays per plate. Plates with transfected cells were incubated for 18–20 h at 37 °C/5% CO2. A screen of each tracer across the entire library using two different concentrations requires duplicate plates of transfected cells. Depending on the number of tracers being screened, transfections can be scaled up using the same ratios. The next day, for each tracer, four 20× screening solutions in tracer dilution buffer (Promega) were prepared: two duplicates at final concentration of 20 μM and two duplicates at a final concentration of 2 μM. A competing unmodified compound was added to one of each duplicate at a final concentration of 400 μM. The four resulting solutions were diluted 4-fold in Opti-MEM without serum or phenol red to generate 5× solutions (5 µM and 0.5 µM tracer +/− 100 μM competing compound). To screen the library, a BioTek MultiFlo FX liquid dispenser was used to dispense 22.5 µL of tracer solution to the top 4 rows and 22.5 µL tracer + competing compound solution to the 4 bottom rows. Plates were briefly mixed on an orbital shaker and incubated for 1.5 h at room temperature. […]

ACKR3 = target: T2, ACKR3 (Homo sapiens, UniProt P25106); test: NanoBRET screen HiBiT-ACKR3 in HEK293; format: binding; settings: ACKR3
T2 construct: purchased Promega (in-house HiBiT-GPCR construct library, NanoBRET)
Description: as §1, §2

T2 sequence (P25106 whole entry): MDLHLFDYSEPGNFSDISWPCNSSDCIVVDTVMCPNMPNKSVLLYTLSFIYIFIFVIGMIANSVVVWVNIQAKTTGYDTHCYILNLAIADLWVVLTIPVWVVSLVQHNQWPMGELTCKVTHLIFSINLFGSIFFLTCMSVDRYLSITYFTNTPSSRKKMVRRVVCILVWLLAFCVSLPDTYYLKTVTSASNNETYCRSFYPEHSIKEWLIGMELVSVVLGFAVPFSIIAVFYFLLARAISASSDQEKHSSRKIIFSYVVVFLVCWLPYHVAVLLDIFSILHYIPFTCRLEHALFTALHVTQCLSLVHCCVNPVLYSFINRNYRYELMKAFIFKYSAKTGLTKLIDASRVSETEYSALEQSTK
T1 sequence (P51685 whole entry): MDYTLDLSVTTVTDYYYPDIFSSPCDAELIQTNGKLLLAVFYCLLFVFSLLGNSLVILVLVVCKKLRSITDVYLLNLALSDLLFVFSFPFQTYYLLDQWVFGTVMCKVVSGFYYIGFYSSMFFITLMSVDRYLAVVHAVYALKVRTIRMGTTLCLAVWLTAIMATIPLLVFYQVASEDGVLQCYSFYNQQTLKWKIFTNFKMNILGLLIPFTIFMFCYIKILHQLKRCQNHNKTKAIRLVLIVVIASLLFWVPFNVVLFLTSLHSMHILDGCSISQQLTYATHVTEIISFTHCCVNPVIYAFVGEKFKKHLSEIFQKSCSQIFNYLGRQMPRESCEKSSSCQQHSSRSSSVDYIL

O=C(CCOCCOCCOCCOCCNC(=O)CCc1ccc2n1[B-](F)(F)[N+]1=C(c3ccc[nH]3)C=CC1=C2)NCCCN1CCN(C2=Nc3ccccc3Oc3ccc(Cl)cc32)CC1 [Loxapine-a-2-NB590] was tested, and the “NanoBRET Fold Response” value (CCR8; tracer 0.1μM) was 1.02, the “NanoBRET Fold Response” value (CCR8; tracer 1μM) was 1.10 and the “NanoBRET Fold Response” value (ACKR3; tracer 0.1μM) was 0.30. The “NanoBRET Fold Response” value (ACKR3; tracer 1μM) was 1.02.

COc1ccccc1N1CCN(CCCCN2C(=O)c3ccc(CNC(=O)CCOCCOCCOCCOCCNC(=O)CCc4ccc5n4[B-](F)(F)[N+]4=C(c6ccc[nH]6)C=CC4=C5)cc3C2=O)CC1 [NAN-190-2-NB590] was tested, and the “NanoBRET Fold Response” value (CCR8; tracer 0.1μM) was 0.92, the “NanoBRET Fold Response” value (CCR8; tracer 1μM) was 0.92 and the “NanoBRET Fold Response” value (ACKR3; tracer 0.1μM) was 1.09.

For COc1ccccc1N1CCN(CCCCN2C(=O)c3ccc(CNC(=O)CCOCCNC(=O)c4ccc(CNC(=O)CCc5ccc6n5[B-](F)(F)[N+]5=C(c7ccc[nH]7)C=CC5=C6)cc4)cc3C2=O)CC1 [NAN-190-3-NB590], the “NanoBRET Fold Response” value (CCR8; tracer 0.1μM) was 0.67, the “NanoBRET Fold Response” value (CCR8; tracer 1μM) was 1.01 and the “NanoBRET Fold Response” value (ACKR3; tracer 0.1μM) was 0.77. For the same compound, the “NanoBRET Fold Response” value (ACKR3; tracer 1μM) was 1.10.

For O=C(CCc1ccc2n1[B-](F)(F)[N+]1=C(c3ccc[nH]3)C=CC1=C2)NCc1ccc(C(=O)NCCOCCC(=O)N[C@@H]2CC[C@@]3(O)[C@H]4Cc5ccc(O)c6c5[C@@]3(CCN4CC3CC3)[C@H]2O6)cc1 [Naltrexone-3-NB590], the “NanoBRET Fold Response” value (CCR8; tracer 0.1μM) was 1.14, the “NanoBRET Fold Response” value (CCR8; tracer 1μM) was 1.02 and the “NanoBRET Fold Response” value (ACKR3; tracer 0.1μM) was 1.11. For the same compound, the “NanoBRET Fold Response” value (ACKR3; tracer 1μM) was 1.07.

With Cc1cc2c(s1)Nc1ccccc1N=C2N1CCN(CCCNC(=O)CCOCCOCCOCCOCCNC(=O)CCc2ccc3n2[B-](F)(F)[N+]2=C(c4ccc[nH]4)C=CC2=C3)CC1 [Olanzapine-a-2-NB590] the “NanoBRET Fold Response” value (CCR8; tracer 0.1μM) was 0.96, the “NanoBRET Fold Response” value (CCR8; tracer 1μM) was 0.95 and the “NanoBRET Fold Response” value (ACKR3; tracer 0.1μM) was 0.94. For the same compound, the “NanoBRET Fold Response” value (ACKR3; tracer 1μM) was 0.83.

With O=C(CCc1ccc2n1[B-](F)(F)[N+]1=C(c3ccc[nH]3)C=CC1=C2)NCc1ccc(C(=O)NCCOCCOCCNCC(O)COc2cccc3ccccc23)cc1 (stereo not shown) [Propranolol-3-NB590] the “NanoBRET Fold Response” value (CCR8; 0.1μM) was 1.00, the “NanoBRET Fold Response” value (CCR8; 1μM) was 0.93 and the “NanoBRET Fold Response” value (ACKR3; 0.1μM) was 1.04. The “NanoBRET Fold Response” value (ACKR3; 1μM) was 1.08.

O=C(CCc1ccc2n1[B-](F)(F)[N+]1=C(c3ccc[nH]3)C=CC1=C2)NCCOCCOCCNC(=O)OCCOCCN1CCN(C2=Nc3ccccc3Sc3ccccc32)CC1 [Quetiapine-a-2-NB590] was tested, and the “NanoBRET Fold Response” value (CCR8; tracer 0.1μM) was 0.93, the “NanoBRET Fold Response” value (CCR8; tracer 1μM) was 1.16 and the “NanoBRET Fold Response” value (ACKR3; tracer 0.1μM) was 0.96. For the same compound, the “NanoBRET Fold Response” value (ACKR3; tracer 1μM) was 0.96.

In the case of Cc1nc2n(c(=O)c1CCN1CCC(c3noc4cc(F)ccc34)CC1)CCCC2OC(=O)NCCOCCOCCOCCOCCNC(=O)CCc1ccc2n1[B-](F)(F)[N+]1=C(c3ccc[nH]3)C=CC1=C2 (stereo not shown) [Risperidone-2-NB590], the “NanoBRET Fold Response” value (CCR8; tracer 0.1μM) is reported as 0.98, the “NanoBRET Fold Response” value (CCR8; tracer 1μM) is reported as 0.89 and the “NanoBRET Fold Response” value (ACKR3; tracer 0.1μM) is reported as 1.07. The “NanoBRET Fold Response” value (ACKR3; tracer 1μM) was 1.36.

With CC(C)N(CC[C@H](c1ccccc1)c1cc(CCNC(=O)CCOCCOCCOCCOCCNC(=O)CCc2ccc3n2[B-](F)(F)[N+]2=C(c4ccc[nH]4)C=CC2=C3)ccc1O)C(C)C [Tolterodine-2-NB590] the “NanoBRET Fold Response” value (CCR8; tracer 0.1μM) was 0.82, the “NanoBRET Fold Response” value (CCR8; tracer 1μM) was 1.07 and the “NanoBRET Fold Response” value (ACKR3; tracer 0.1μM) was 0.96. For the same compound, the “NanoBRET Fold Response” value (ACKR3; tracer 1μM) was 1.00.

For CC(C)N(CC[C@H](c1ccccc1)c1cc(CCNC(=O)c2ccc(CNC(=O)CCc3ccc4n3[B-](F)(F)[N+]3=C(c5ccc[nH]5)C=CC3=C4)cc2)ccc1O)C(C)C [Tolterodine-BZ-NB590], the “NanoBRET Fold Response” value (CCR8; tracer 0.1μM) was 0.92, the “NanoBRET Fold Response” value (CCR8; tracer 1μM) was 1.00 and the “NanoBRET Fold Response” value (ACKR3; tracer 0.1μM) was 0.88. The “NanoBRET Fold Response” value (ACKR3; tracer 1μM) was 0.96.

CCCn1c(=O)c2[nH]c(-c3ccc(OCC(=O)NCCNC(=O)CCOCCNC(=O)c4ccc(CNC(=O)CCc5ccc6n5[B-](F)(F)[N+]5=C(c7ccc[nH]7)C=CC5=C6)cc4)cc3)nc2n(CCC)c1=O [XAC-3-NB590] was tested, and the “NanoBRET Fold Response” value (CCR8; tracer 0.1μM) was 0.90, the “NanoBRET Fold Response” value (CCR8; tracer 1μM) was 0.93 and the “NanoBRET Fold Response” value (ACKR3; tracer 0.1μM) was 1.02. For the same compound, the “NanoBRET Fold Response” value (ACKR3; tracer 1μM) was 1.49.
